Results published in DBAASP.
In brackets after ≈: the same amount, converted by molar mass. One block for each compound: values may come before it.

Legend:
Assay in all cases: ≥ marks a high value that may be exact or a test limit, other limits are often not marked, values filed in µg/mL are converted to µM
[1] = tested on: Candida tropicalis ATCC 13803
[2] = tested on: Candida albicans SC5314
[3] = tested on: Candida parapsilosis ATCC 22019
[4] = tested on: Staphylococcus epidermidis ATCC 12228
[5] = tested on: Escherichia coli UB1005
[6] = tested on: Pseudomonas aeruginosa PAO1
[7] = tested on: Salmonella enterica subsp. enterica serovar Typhimurium ATCC 14028
[8] = tested on: Pseudomonas aeruginosa ATCC 27853
[9] = tested on: Enterococcus faecalis ATCC 29212
[10] = tested on: Bacillus subtilis CMCC 63501
[11] = tested on: Salmonella typhimurium ATCC 7731
[12] = tested on: Candida albicans ATCC 90028
[13] = tested on: Candida krusei ATCC 6258
[14] = tested on: Pseudomonas putida
[15] = tested on: Salmonella enterica subsp. enterica serovar Enteritidis ATCC 13076
[16] = tested on: Saccharomyces cerevisiae ATCC 44774
[17] = tested on: Pseudomonas putida ATCC 17426
[18] = tested on: Bacillus subtilis
[19] = tested on: Bacillus subtilis ATCC 62037
[20] = tested on: Escherichia coli
[21] = tested on: Staphylococcus aureus
[22] = tested on: Candida albicans ATCC 10231
[23] = tested on: Saccharomyces cerevisiae
[24] = tested on: Cryptococcus neoformans ATCC 34881
[25] = tested on: Staphylococcus aureus ATCC 15752
[26] = tested on: Serratia marcescens
[27] = tested on: Cryptococcus neoformans
[28] = tested on: Salmonella typhimurium
[29] = tested on: Streptococcus mutans ATCC 25175
[30] = tested on: Streptococcus pneumoniae
[31] = tested on: Escherichia coli ATCC 27325
[32] = tested on: Candida albicans
[33] = tested on: Streptococcus mutans
[34] = tested on: Salmonella enterica subsp. enterica serovar Pullorum C79-13
[35] = tested on: Escherichia coli K88
[36] = tested on: Staphylococcus aureus ATCC 25923
[37] = tested on: Escherichia coli 078
[38] = tested on: Escherichia coli K99
[39] = tested on: Staphylococcus aureus ATCC 29213
[40] = tested on: Escherichia coli ATCC 25922
[41] = tested on: Salmonella enterica subsp. enterica serovar Typhimurium C77-31
[42] = tested on: Staphylococcus aureus ATCC 43300

Compound: NCCCC[C@H](NC(=O)[C@@H](N)CS)C(=O)N[C@@H](Cc1ccc(O)cc1)C(=O)N[C@@H](CCCN=C(N)N)C(=O)N[C@@H](Cc1c[nH]c2ccccc12)C(=O)N[C@@H](CCCN=C(N)N)C(=O)O [CKYRWR]
MIC [1]: ≥ 220 µM | MIC [2]: ≥ 439 µM | MIC [3]: ≥ 220 µM

Compound: CC[C@H](C)[C@H](NC(=O)[C@H](CCCN=C(N)N)NC(=O)[C@@H](N)Cc1ccccc1)C(=O)N[C@@H](CCCN=C(N)N)C(=O)N[C@H](C(=O)N[C@@H](CCCN=C(N)N)C(=O)N[C@H](C(N)=O)C(C)C)C(C)C [FRIRVRV]
MIC [4]: 32 µM (≈ 30.2 µg/mL) | MIC [5]: ≥ 32 µM | MIC [6]: 32 µM (≈ 30.2 µg/mL) | MIC [7]: 16 µM (≈ 15.1 µg/mL) | MIC [8]: 16 µM (≈ 15.1 µg/mL) | MIC [9]: 32 µM (≈ 30.2 µg/mL) | MIC [10]: 16 µM (≈ 15.1 µg/mL) | MIC [11]: ≥ 32 µM

Compound: CC[C@H](C)[C@H](NC(=O)[C@@H](NC(=O)CN)C(C)C)C(=O)N[C@@H](CCCCN)C(=O)N[C@@H](C)C(=O)N[C@@H](C)C(=O)N[C@@H](CCCCN)C(=O)N[C@@H](CCCCN)C(=O)N[C@H](C(=O)N[C@H](C(=O)N[C@@H](CC(N)=O)C(=O)N[C@H](C(=O)N[C@@H](CC(C)C)C(=O)N[C@@H](CCCCN)C(=O)N[C@@H](CC(N)=O)C(=O)N[C@@H](CC(C)C)C(=O)N[C@@H](Cc1ccccc1)C(N)=O)C(C)C)C(C)C)C(C)C [GVIKAAKKVVNVLKNLF]
MIC [2]: ≥ 34.8 µM | MIC [3]: ≥ 34.8 µM | MIC [12]: ≥ 69.5 µM | MIC [13]: ≥ 34.8 µM

Compound: CC(C)C[C@H](NC(=O)CNC(=O)[C@H](C)NC(=O)[C@@H](N)CCCN=C(N)N)C(=O)N[C@@H](CCC(N)=O)C(=O)N[C@@H](Cc1ccccc1)C(=O)N1CCC[C@H]1C(=O)N[C@H](C(=O)NCC(=O)N[C@@H](CCCN=C(N)N)C(=O)N[C@@H](CC(C)C)C(=O)N[C@@H](CC(C)C)C(=O)N[C@@H](CCCN=C(N)N)C(=O)N[C@@H](CCCN=C(N)N)C(=O)N[C@@H](CC(C)C)C(=O)N[C@@H](CC(C)C)C(=O)N[C@@H](CCCN=C(N)N)C(=O)N[C@@H](CCCN=C(N)N)C(=O)N[C@@H](CC(C)C)C(=O)N[C@@H](CC(C)C)C(=O)N[C@@H](CCCN=C(N)N)C(=O)O)C(C)C [RAGLQFPVGRLLRRLLRRLLR]
MIC [14]: 0.781 µM (≈ 2 µg/mL) | MIC [15]: 0.781 µM (≈ 2 µg/mL) | MIC [16]: 0.781 µM (≈ 2 µg/mL) | MIC [17]: 0.781 µM (≈ 2 µg/mL) | MIC [18]: 0.391 µM (≈ 1 µg/mL) | MIC [19]: 0.391 µM (≈ 1 µg/mL) | MIC [20]: 0.391 µM (≈ 1 µg/mL) | MIC [21]: 0.391 µM (≈ 1 µg/mL) | MIC [22]: 0.391 µM (≈ 1 µg/mL) | MIC [23]: 1.56 µM (≈ 4 µg/mL) | MIC [24]: 0.781 µM (≈ 2 µg/mL) | MIC [25]: 0.781 µM (≈ 2 µg/mL) | MIC [26]: 0.391 µM (≈ 1 µg/mL) | MIC [27]: 0.391 µM (≈ 1 µg/mL) | MIC [28]: 0.391 µM (≈ 1 µg/mL) | MIC [29]: 0.781 µM (≈ 2 µg/mL) | MIC [30]: 0.391 µM (≈ 1 µg/mL) | MIC [31]: 0.391 µM (≈ 1 µg/mL) | MIC [32]: 0.781 µM (≈ 2 µg/mL) | MIC [33]: 0.195 µM (≈ 0.5 µg/mL)

Other lines, results leading:

MIC [14]: 7.78 µM (≈ 16 µg/mL) | MIC [18]: 7.78 µM (≈ 16 µg/mL) | MIC [20]: 7.78 µM (≈ 16 µg/mL) | MIC [21]: 7.78 µM (≈ 16 µg/mL) | MIC [23]: 1.94 µM (≈ 4 µg/mL) | MIC [26]: 15.6 µM (≈ 32 µg/mL) | MIC [27]: 3.89 µM (≈ 8 µg/mL) | MIC [28]: 1.94 µM (≈ 4 µg/mL) | MIC [30]: 7.78 µM (≈ 16 µg/mL) | MIC [32]: 7.78 µM (≈ 16 µg/mL) | MIC [33]: 15.6 µM (≈ 32 µg/mL)
Compound: CC(C)C[C@H](NC(=O)CNC(=O)[C@H](CCCCN)NC(=O)[C@@H](N)CCCN=C(N)N)C(=O)N[C@@H](CCC(N)=O)C(=O)N[C@@H](CCCCN)C(=O)N[C@@H](CC(C)C)C(=O)N[C@H](C(=O)NCC(=O)N[C@@H](CCCN=C(N)N)C(=O)N[C@H](C(=O)N[C@@H](Cc1cnc[nH]1)C(=O)N[C@@H](CCCN=C(N)N)C(=O)N[C@@H](CC(C)C)C(=O)N[C@@H](CC(C)C)C(=O)N[C@@H](CCCN=C(N)N)C(=O)N[C@@H](CCCCN)C(=O)O)C(C)C)C(C)C [RKGLQKLVGRVHRLLRK]

MIC [4]: 4 µM (≈ 6.74 µg/mL) | MIC [5]: 1 µM (≈ 1.69 µg/mL) | MIC [7]: 2 µM (≈ 3.37 µg/mL) | MIC [34]: 1 µM (≈ 1.69 µg/mL) | MIC [35]: 2 µM (≈ 3.37 µg/mL) | MIC [36]: 2 µM (≈ 3.37 µg/mL) | MIC [37]: 2 µM (≈ 3.37 µg/mL) | MIC [38]: 2 µM (≈ 3.37 µg/mL) | MIC [9]: 2 µM (≈ 3.37 µg/mL) | MIC [10]: 1 µM (≈ 1.69 µg/mL) | MIC [39]: 4 µM (≈ 6.74 µg/mL) | MIC [40]: 2 µM (≈ 3.37 µg/mL) | MIC [41]: 4 µM (≈ 6.74 µg/mL)
Compound: CC[C@H](C)[C@H](NC(=O)[C@H](Cc1c[nH]c2ccccc12)NC(=O)[C@H](CCCCN)NC(=O)[C@H](Cc1c[nH]c2ccccc12)NC(=O)[C@@H](NC(=O)[C@H](Cc1c[nH]c2ccccc12)NC(=O)CNC(=O)[C@@H](NC(=O)[C@H](CCCCN)NC(=O)[C@H](CCCCN)NC(=O)[C@H](Cc1c[nH]c2ccccc12)NC(=O)[C@@H](N)CCCN=C(N)N)[C@@H](C)CC)C(C)C)C(N)=O [RWKKIGWVWKWI]

MIC [4]: 128 µM (≈ 273 µg/mL) | MIC [5]: 8 µM (≈ 17 µg/mL) | MIC [42]: 128 µM (≈ 273 µg/mL) | MIC [34]: 16 µM (≈ 34.1 µg/mL) | MIC [8]: 16 µM (≈ 34.1 µg/mL) | MIC [10]: ≥ 64 µM | MIC [39]: 128 µM (≈ 273 µg/mL) | MIC [40]: 8 µM (≈ 17 µg/mL) | MIC [11]: ≥ 32 µM
Compound: CC(C)C[C@H](NC(=O)[C@H](CCCCN)NC(=O)[C@H](CCCCN)NC(=O)[C@H](C)NC(=O)[C@@H](NC(=O)[C@H](CCCCN)NC(=O)[C@H](CO)NC(=O)[C@H](CC(C)C)NC(=O)[C@H](Cc1c[nH]c2ccccc12)NC(=O)[C@H](CC(C)C)NC(=O)[C@H](CCCCN)NC(=O)[C@H](CCCCN)NC(=O)[C@H](C)NC(=O)[C@@H](NC(=O)[C@H](CCCCN)NC(=O)[C@H](CO)NC(=O)[C@H](CC(C)C)NC(=O)[C@@H](N)Cc1c[nH]c2ccccc12)[C@@H](C)O)[C@@H](C)O)C(N)=O [WLSKTAKKLWLSKTAKKL]
